This note sets out measurements from patent US20250230165A1, “HETEROCYCLIC COMPOUNDS FOR USE IN THE TREATMENT OF CANCER” (ARTIOS PHARMA LIMITED, priority 2021, published 2025).

This assay addresses T1, Human Polθ polymerase domain (aa1820-2590) (Homo sapiens, UniProt O75417).
T1 construct: Human Polθ polymerase domain (aa1820-2590) was expressed in E. coli; made in house; host or cells: E. coli
T1 sequence (O75417 1820-2590): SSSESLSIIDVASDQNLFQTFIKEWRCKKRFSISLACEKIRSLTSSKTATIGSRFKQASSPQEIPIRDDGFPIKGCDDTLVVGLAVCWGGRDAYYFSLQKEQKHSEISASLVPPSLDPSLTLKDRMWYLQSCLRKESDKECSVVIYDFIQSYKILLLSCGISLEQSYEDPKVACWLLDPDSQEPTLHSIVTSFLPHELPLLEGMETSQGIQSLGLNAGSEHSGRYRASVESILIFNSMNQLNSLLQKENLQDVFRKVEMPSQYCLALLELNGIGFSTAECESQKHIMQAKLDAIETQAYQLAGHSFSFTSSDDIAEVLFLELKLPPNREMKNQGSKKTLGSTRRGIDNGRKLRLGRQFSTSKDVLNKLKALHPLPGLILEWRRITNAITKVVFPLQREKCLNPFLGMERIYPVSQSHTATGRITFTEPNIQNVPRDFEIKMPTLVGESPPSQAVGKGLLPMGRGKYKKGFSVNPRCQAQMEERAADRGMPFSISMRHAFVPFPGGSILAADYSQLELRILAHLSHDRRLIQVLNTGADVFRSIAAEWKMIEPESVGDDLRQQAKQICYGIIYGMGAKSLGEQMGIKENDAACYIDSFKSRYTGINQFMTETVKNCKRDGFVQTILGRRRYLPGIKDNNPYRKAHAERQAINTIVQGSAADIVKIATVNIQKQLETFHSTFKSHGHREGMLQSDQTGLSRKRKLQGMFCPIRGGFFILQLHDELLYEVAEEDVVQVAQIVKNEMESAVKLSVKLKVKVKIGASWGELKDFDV
Kind of assay: Polθ Polymerase Domain Kinact/KI Assay (PicoGreen). It counts as biochemical. The note with it: 0.8 nM Polθ, 100 nM DNA substrate, kobs vs [I] fit for 2-step covalent inhibitor. The essentials:
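Enzyme 0.8 nM, annealed DNA substrate 100 nM, […]; 25 mM Tris pH 7.5, 5% glycerol, 0.01% Triton X-100, 0.1 mg/ml BSA, 1 mM DTT, 1% DMSO. Quench with EDTA at timepoints to 60 min; PicoGreen read. kobs from time courses → Kinact/KI.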
In the case of `C=CC(=O)N1CCN2CCN(CCN3C[C@H]4CC(=O)N(c5cc(C(F)(F)F)cc(C)n5)[C@@H]4C(=O)N(C)c4cccc(F)c43)C(=O)[C@H]2C1` [Example 46, (3aR,11aS)-5-(2-((R)-8-acryloyl-1-oxooctahydro-2H-pyrazino[1,2-a]pyrazin-2-yl)ethyl)-6-fluoro-10-methyl-1-(6-methyl-4-(trifluoromethyl)pyridin-2-yl)-1,3a,4,5,10,11a-hexahydro-2H-benzo [b]pyrrolo[2,3-f][1,4] diazocine-2,11(3H)-dione], the Kinact/Kl was found to be 480000 M⁻¹ s⁻¹. The result for `C=CC(=O)N1CCN2CC(=O)N(CCN3C[C@H]4CC(=O)N(c5cc(C(F)(F)F)cc(C)n5)[C@@H]4C(=O)N(C)c4cccc(F)c43)C[C@@H]2C1` [Example 47, (3aR,11aS)-5-(2-((S)-8-acryloyl-3-oxooctahydro-2H-pyrazino[1,2-a]pyrazin-2-yl)ethyl)-6-fluoro-10-methyl-1-(6-methyl-4-(trifluoromethyl)pyridin-2-yl)-1,3a,4,5,10,11a-hexahydro-2H-benzo[b]pyrrolo[2,3-f][1,4]diazocine-2,11(3H)-dione] reads 140000 M⁻¹ s⁻¹; that for `C=CC(=O)N1CCN2CC(=O)N(CCN3C[C@H]4CC(=O)N(c5cc(C(F)(F)F)cc(C)n5)[C@@H]4C(=O)N(C)c4cccc(F)c43)C[C@H]2C1` [Example 48, (3aR,11aS)-5-(2-((R)-8-acryloyl-3-oxooctahydro-2H-pyrazino[1,2-a]pyrazin-2-yl)ethyl)-6-fluoro-10-methyl-1-(6-methyl-4-(trifluoromethyl)pyridin-2-yl)-1,3a,4,5,10,11a-hexahydro-2H-benzo[b]pyrrolo[2,3-f][1,4]diazocine-2,11(3H)-dione], 110000 M⁻¹ s⁻¹; that for `C=CC(=O)N1CCc2c(ncn2CCN2C[C@H]3CC(=O)N(c4cc(C(F)(F)F)cc(C)n4)[C@@H]3C(=O)N(C)c3cccc(F)c32)C1` [Example 49, (3aR,11aS)-5-(2-(5-acryloyl-4,5,6,7-tetrahydro-1H-imidazo[4,5-c]pyridin-1-yl)ethyl)-6-fluoro-10-methyl-1-(6-methyl-4-(trifluoromethyl)pyridin-2-yl)-1,3a,4,5,10,11a-hexahydro-2H-benzo[b]pyrrolo[2,3-f][1,4]diazocine-2,11(3H)-dione], 340000 M⁻¹ s⁻¹. The result for `C=CC(=O)N1CCc2ncn(CCN3C[C@H]4CC(=O)N(c5cc(C(F)(F)F)cc(C)n5)[C@@H]4C(=O)N(C)c4cccc(F)c43)c2C1` [Example 50, (3aR,11aS)-5-(2-(5-acryloyl-4,5,6,7-tetrahydro-3H-imidazo[4,5-c]pyridin-3-yl)ethyl)-6-fluoro-10-methyl-1-(6-methyl-4-(trifluoromethyl)pyridin-2-yl)-1,3a,4,5,10,11a-hexahydro-2H-benzo[b]pyrrolo[2,3-f][1,4]diazocine-2,11(3H)-dione] reads 190000 M⁻¹ s⁻¹.

With `C=CC(=O)N1CC(N2CCN(C(=O)CN3C[C@H]4CC(=O)N(c5cc(C(F)(F)F)cc(C)n5)[C@@H]4C(=O)N(C)c4cccc(F)c43)CC2)C1` [Example 51, (3aR,11aS)-5-(2-(4-(1-acryloylazetidin-3-yl)piperazin-1-yl)-2-oxoethyl)-6-fluoro-10-methyl-1-(6-methyl-4-(trifluoromethyl)pyridin-2-yl)-1,3a,4,5,10,11a-hexahydro-2H-benzo[b]pyrrolo[2,3-f][1,4]diazocine-2,11(3H)-dione], the Kinact/Kl amounted to 210000 M⁻¹ s⁻¹. Molecule `C=CC(=O)N1CC2(C1)CN(C(=O)CN1C[C@H]3CC(=O)N(c4cc(C(F)(F)F)cc(C)n4)[C@@H]3C(=O)N(C)c3cccc(F)c31)C[C@@H](C)N2` [Example 52, (3aR,11aS)-5-(2-((R)-2-acryloyl-6-methyl-2,5,8-triazaspiro[3.5]nonan-8-yl)-2-oxoethyl)-6-fluoro-10-methyl-1-(6-methyl-4-(trifluoromethyl)pyridin-2-yl)-1,3a,4,5,10,11a-hexahydro-2H-benzo[b]pyrrolo[2,3-f][1,4]diazocine-2,11(3H)-dione] displayed a Kinact/Kl of 190000 M⁻¹ s⁻¹. `C=CC(=O)N1CCN(c2cc(N3C[C@H]4CC(=O)N(c5cc(C(F)(F)F)cc(C)n5)[C@@H]4C(=O)N(C)c4cccc(F)c43)ccn2)CC1` [Example 53, (3aR,11aS)-5-(2-(4-acryloylpiperazin-1-yl)pyridin-4-yl)-6-fluoro-10-methyl-1-(6-methyl-4-(trifluoromethyl)pyridin-2-yl)-1,3a,4,5,10,11a-hexahydro-2H-benzo[b]pyrrolo[2,3-f][1,4]diazocine-2,11(3H)-dione] showed a Kinact/Kl of 24000 M⁻¹ s⁻¹. Molecule `C=CC(=O)N1CCN(c2cccc(N3C[C@H]4CC(=O)N(c5cc(C(F)(F)F)cc(C)n5)[C@@H]4C(=O)N(C)c4cccc(F)c43)c2)CC1` [Example 54, (3aR,11aS)-5-(3-(4-acryloylpiperazin-1-yl)phenyl)-6-fluoro-10-methyl-1-(6-methyl-4-(trifluoromethyl)pyridin-2-yl)-1,3a,4,5,10,11a-hexahydro-2H-benzo[b]pyrrolo[2,3-f][1,4]diazocine-2,11(3H)-dione] gave a Kinact/Kl of 110000 M⁻¹ s⁻¹.

For `C=CC(=O)N1CCN(c2cccc(N3C[C@H]4CC(=O)N(c5cc(C(F)(F)F)cc(C)n5)[C@@H]4C(=O)N(C)c4cccc(F)c43)n2)CC1` [Example 55, (3aR,11aS)-5-(6-(4-acryloylpiperazin-1-yl)pyridin-2-yl)-6-fluoro-10-methyl-1-(6-methyl-4-(trifluoromethyl)pyridin-2-yl)-1,3a,4,5,10,11a-hexahydro-2H-benzo[b]pyrrolo[2,3-f][1,4]diazocine-2,11(3H)-dione], the Kinact/Kl came out at 15000 M⁻¹ s⁻¹. To `C=CC(=O)N1CCN(c2cccc(N3C[C@H]4CC(=O)N(c5cc(C(F)(F)F)cc(C)n5)[C@@H]4C(=O)N(C)c4cccc(Cl)c43)n2)CC1` [Example 56, (3aR,11aS)-5-(6-(4-acryloylpiperazin-1-yl)pyridin-2-yl)-6-chloro-10-methyl-1-(6-methyl-4-(trifluoromethyl)pyridin-2-yl)-1,3a,4,5,10,11a-hexahydro-2H-benzo[b]pyrrolo[2,3-f][1,4]diazocine-2,11(3H)-dione] belongs 36000 M⁻¹ s⁻¹; to `C=CC(=O)N1CC(Oc2cccc(N3C[C@H]4CC(=O)N(c5cc(C(F)(F)F)cc(C)n5)[C@@H]4C(=O)N(C)c4cccc(F)c43)n2)C1` [Example 57, (3aR,11aS)-5-(6-((1-acryloylazetidin-3-yl)oxy)pyridin-2-yl)-6-fluoro-10-methyl-1-(6-methyl-4-(trifluoromethyl)pyridin-2-yl)-1,3a,4,5,10,11a-hexahydro-2H-benzo[b]pyrrolo[2,3-f][1,4]diazocine-2,11(3H)-dione], 34000 M⁻¹ s⁻¹; to `C=CC(=O)N1C[C@@H]2CN(CCN3C[C@H]4CC(=O)N(c5cc(C(F)(F)F)cc(C)n5)[C@@H]4C(=O)N(C)c4cccc(F)c43)CCN2[C@H](C)C1` [Example 63a, (3aR,11aS)-5-(2-((6R/S,9aS/R)-8-acryloyl-6-methyloctahydro-2H-pyrazino[1,2-a]pyrazin-2-yl)ethyl)-6-fluoro-10-methyl-1-(6-methyl-4-(trifluoromethyl)pyridin-2-yl)-1,3a,4,5,10,11a-hexahydro-2H-benzo[b]pyrrolo[2,3-f][1,4]diazocine-2,11(3H)-dione], 3.1e+06 M⁻¹ s⁻¹. To `C=CC(=O)N1C[C@H]2CN(CCN3C[C@H]4CC(=O)N(c5cc(C(F)(F)F)cc(C)n5)[C@@H]4C(=O)N(C)c4cccc(F)c43)CCN2[C@@H](C)C1` [Example 63b, (3aR,11aS)-5-(2-((6S/R,9aR/S)-8-acryloyl-6-methyloctahydro-2H-pyrazino[1,2-a]pyrazin-2-yl)ethyl)-6-fluoro-10-methyl-1-(6-methyl-4-(trifluoromethyl)pyridin-2-yl)-1,3a,4,5,10,11a-hexahydro-2H-benzo[b]pyrrolo[2,3-f][1,4]diazocine-2,11(3H)-dione] belongs 190000 M⁻¹ s⁻¹. To `C=CC(=O)N1C[C@@H]2CN(CCN3C[C@H]4CC(=O)N(c5cc(C(F)(F)F)cc(C)n5)[C@@H]4C(=O)N(C)c4cccc(F)c43)CCN2[C@@H](C)C1` [Example 64b, (3aR,11aS)-5-(2-((6S/R,9aS/R)-8-acryloyl-6-methyloctahydro-2H-pyrazino[1,2-a]pyrazin-2-yl)ethyl)-6-fluoro-10-methyl-1-(6-methyl-4-(trifluoromethyl)pyridin-2-yl)-1,3a,4,5,10,11a-hexahydro-2H-benzo[b]pyrrolo[2,3-f][1,4]diazocine-2,11(3H)-dione] belongs 270000 M⁻¹ s⁻¹.
